Results published in ChEMBL document CHEMBL1126468, “Antineoplastic bicyclicsulfonylureas” (Bioorg Med Chem Lett, 1992).

Tested on: not listed separately
Assay: Inhibition of tumor growth in 6C3HED lymphosarcoma inoculated mice following 150 mg/kg p.o. o.d.
Format: functional
Conditions: Mus musculus, route oral

SMILES	inhibition in vivo at 150 mg/kg [%]
O=C(Nc1ccc(Cl)cc1)NS(=O)(=O)c1ccc2cc[nH]c2c1	37
O=C(Nc1ccc(Cl)cc1)NS(=O)(=O)c1cccc2occc12	84
COc1ccc2oc(S(=O)(=O)NC(=O)Nc3ccc(Cl)cc3)cc2c1	25
O=C(Nc1ccc(Br)cc1)NS(=O)(=O)c1cc2ccccc2o1	48
Cc1cc2cc(S(=O)(=O)NC(=O)Nc3ccc(Cl)cc3)ccc2o1	57
O=C(Nc1ccc(Cl)cc1)NS(=O)(=O)c1csc2ccccc12	43
Cc1cc(S(=O)(=O)NC(=O)Nc2ccc(Cl)cc2)cc2ccoc12	89
O=C(Nc1ccc(Cl)cc1)NS(=O)(=O)c1cc2ccccc2s1	47
O=C(Nc1ccc(Cl)cc1)NS(=O)(=O)c1cc2cc(Cl)ccc2o1	40
Cc1ccc(NC(=O)NS(=O)(=O)c2cc3ccccc3o2)cc1	11
O=C(Nc1ccc(Cl)cc1)NS(=O)(=O)c1cc2cccc(Br)c2o1	18
Cc1ccc2oc(S(=O)(=O)NC(=O)Nc3ccc(Cl)cc3)cc2c1	6
Cc1coc2ccc(S(=O)(=O)NC(=O)Nc3ccc(Cl)cc3)cc12	44
O=C(Nc1ccc(Cl)c(Cl)c1)NS(=O)(=O)c1cc2ccccc2o1	28
O=C(Nc1ccc(Cl)cc1)NS(=O)(=O)c1ccc2occc2c1	100
COc1cc(S(=O)(=O)NC(=O)Nc2ccc(Cl)cc2)cc2ccoc12	51
Cc1ccc2sc(S(=O)(=O)NC(=O)Nc3ccc(Cl)cc3)cc2c1	10
Cc1ccc(NC(=O)NS(=O)(=O)c2ccc3occc3c2)cc1	84
O=C(Nc1ccc(Cl)cc1)NS(=O)(=O)c1cc2ccccc2o1	84
Cc1cccc2cc(S(=O)(=O)NC(=O)Nc3ccc(Cl)cc3)oc12	21
O=C(Nc1ccc(Cl)cc1)NS(=O)(=O)c1cc2ccccc2[nH]1	26

Tested on: Mus musculus
Assay: Percent inhibition is the ratio of tumor weight of treated animals at a dose 80 mg/kg given daily to 8 mice perorally versus the untreated control mice infected with 6C3HED lymphosarcoma
Format: functional
Conditions: route oral

SMILES	inhibition in vivo at 80 mg/kg [%]
O=C(Nc1ccc(Cl)cc1)NS(=O)(=O)c1ccc2sccc2c1	44

Tested on: Mus musculus
Assay: Percent inhibition is the ratio of tumor weight of treated animals at a dose 160 mg/kg given daily to 8 mice perorally versus the untreated control mice infected with 6C3HED lymphosarcoma
Format: functional
Conditions: route oral

SMILES	inhibition in vivo at 160 mg/kg [%]
O=C(Nc1ccc(Cl)cc1)NS(=O)(=O)c1ccc2ccoc2c1	100
